Reference: ChEMBL document CHEMBL5356955, “Thiamine analogues featuring amino-oxetanes as potent and selective inhibitors of pyruvate dehydrogenase” (Bioorg Med Chem Lett, 2024)

How the values were obtained:
[1] = biological target: T1, Pyruvate dehydrogenase E1 component subunit alpha, somatic form, mitochondrial (Sus scrofa, UniProt P29804); assay: Inhibition of porcine PDHc E1-subunit incubated for 30 mins followed by pyruvate addition in presence of thiamine pyrophosphate by microplate reader analysis
T1 sequence (P29804 whole entry): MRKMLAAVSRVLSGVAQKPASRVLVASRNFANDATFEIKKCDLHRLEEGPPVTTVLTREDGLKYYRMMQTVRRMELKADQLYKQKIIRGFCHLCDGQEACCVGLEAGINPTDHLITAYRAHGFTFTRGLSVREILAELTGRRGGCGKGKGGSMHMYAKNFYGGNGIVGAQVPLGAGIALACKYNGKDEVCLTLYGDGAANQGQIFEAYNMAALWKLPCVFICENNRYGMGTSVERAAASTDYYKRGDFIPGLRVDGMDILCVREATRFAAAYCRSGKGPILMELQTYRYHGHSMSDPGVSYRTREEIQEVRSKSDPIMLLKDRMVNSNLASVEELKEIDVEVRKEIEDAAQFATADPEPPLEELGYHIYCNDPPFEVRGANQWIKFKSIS

[2] = biological target: T2, Pyruvate dehydrogenase E1 component subunit alpha, somatic form, mitochondrial (Sus scrofa) (UniProt P29804); assay: Binding affinity to porcine PDHc E1-subunit assessed as KM(TPP)/Ki ratio incubated for 30 mins followed by pyruvate addition by microplate reader analysis
T2 sequence (whole entry): T1 sequence (P29804 whole entry)

[3] = biological target: T1, Pyruvate dehydrogenase E1 component subunit alpha, somatic form, mitochondrial; assay: Binding affinity to porcine PDHc E1-subunit assessed as inhibition constant incubated for 30 mins followed by pyruvate addition by microplate reader analysis
[4] = biological target: T2, Pyruvate dehydrogenase E1 component subunit alpha, somatic form, mitochondrial (Sus scrofa); assay: Inhibition of porcine PDHc E1-subunit at 10 uM at 1:1 compound: thiamine pyrophosphate ratio incubated for 30 mins followed by pyruvate addition by microplate reader analysis relative to control
[5] = Permeability of the compound assessed as absorbed fraction by PAMPA assay; type: ADME
[6] = biological target: T2, Pyruvate dehydrogenase E1 component subunit alpha, somatic form, mitochondrial (Sus scrofa); assay: Inhibition of porcine PDHc E1-subunit at 10 uM at 1:5 compound: thiamine pyrophosphate ratio incubated for 30 mins followed by pyruvate addition by microplate reader analysis relative to control
[7] = Thermal stability of the compound assessed as compound remaining in DMSO at 70 degreeC incubated for 2 hrs by NMR analysis; type: physicochemical; conditions: read-out: Stability
[8] = Stability of the compound assessed as porcine liver esterase mediated compound degradation by measuring compound recovery at 0.05 mmol measured after 30 mins by NMR analysis; type: ADME, Sus scrofa; conditions: pig, read-out: Stability
[9] = Drug metabolism in porcine liver esterase assessed as 2-(4-((4-amino-2-methylpyrimidin-5-yl)methyl)-3-methylthiophen-2-yl)ethan-1-ol formation at pH 7.4 measured after 4 hrs; type: ADME, Sus scrofa; conditions: pig, pH 7.4, 4 h
[10] = Stability of the compound assessed as compound remaining in 0.1M aqueous phosphate buffer at pH 7.4 incubated for 2 hrs by NMR analysis; type: physicochemical; conditions: read-out: Stability
[11] = Stability of the compound assessed as compound remaining in 0.1 M aqueous K2CO3 incubated for 1 hr by NMR analysis; type: physicochemical; conditions: read-out: Stability
[12] = Stability of the compound assessed as compound remaining in 1 M aqueous HCl at 37 degreeC incubated for 2 hrs by NMR analysis; type: physicochemical; conditions: read-out: Stability
[13] = Stability of the compound assessed as compound remaining in 1 M aqueous NaOH at 37 degreeC incubated for 2 hrs by NMR analysis; type: physicochemical; conditions: read-out: Stability
[14] = Metabolic stability of the compound assessed as porcine liver esterase mediated hydrolysis at pH 7.4 measured after 4 hrs by UPLC analysis; type: ADME, Sus scrofa; conditions: pig, isolated protein, pH 7.4, 4 h

Compound	IC50 [1]	Ratio [2]	Ki [3]	inhibition [4]	permeability [5]	inhibition [6]	also measured
Cc1ncc(CN2CS[C@H](CCO)[C@@H]2C)c(N)n1 (racemic)	21000 nM	0.48	105 nM	–	–	–	–
COc1ccc(C(=O)OCC[C@H]2SCN(Cc3cnc(C)nc3N)[C@H]2C)cc1 (racemic)	3500 nM	2.86	17.5 nM	–	–	–	–
COc1ccc(C(=O)NCCc2cn(Cc3cnc(C)nc3N)nn2)cc1	35000 nM	0.29	175 nM	22%	26%	< 10%	–
COc1ccc(C(=O)OCCc2cn(Cc3cnc(C)nc3N)nn2)cc1	6300 nM	1.59	31.5 nM	63%	31%	25%	–
Cc1ncc(Cn2cc(CCNC(=O)c3ccc(Cl)cc3)nn2)c(N)n1	66000 nM	–	–	–	–	–	–
Cc1ncc(Cn2cc(CCO)nn2)c(N)n1	30000 nM	–	150 nM	–	–	–	–
Cc1ncc(Cn2cc(CCOC(=O)c3cccnc3)nn2)c(N)n1	3000 nM	–	–	–	–	–	–
COc1ccc(C2(NCCc3cn(Cc4cnc(C)nc4N)nn3)COC2)cc1	7800 nM	1.28	39 nM	58%	35%	20%	–
Cc1ncc(Cc2coc(CCNC(=O)c3ccc(Cl)cc3)c2)c(N)n1	9200 nM	–	–	–	–	–	–
COc1ccc(C(=O)OCCc2scc(Cc3cnc(C)nc3N)c2C)cc1	890 nM	11.2	4.45 nM	> 90%	39%	72%	remaining at 2 h [7]: > 90%; remaining at 0.5 h [8]: < 10%; Drug metabolism [9]: Metabolite_Detected; remaining at 2 h [10]: > 90%; remaining at 1 h [11]: 31%; remaining at 2 h [12]: 43%; remaining at 2 h [13]: 15%; Stability [14]: Unstable
COc1ccc(C2(NCCc3scc(Cc4cnc(C)nc4N)c3C)COC2)cc1	990 nM	10.1	4.95 nM	> 90%	44%	65%	remaining at 2 h [7]: > 90%; remaining at 0.5 h [8]: > 90%; remaining at 2 h [10]: > 90%; remaining at 1 h [11]: > 90%; remaining at 2 h [12]: 22%; remaining at 2 h [13]: > 90%; Stability [14]: Stable
COc1ccc(C(=O)NCCc2scc(Cc3cnc(C)nc3N)c2C)cc1	5100 nM	1.96	25.5 nM	65%	35%	28%	Stability [14]: Stable
Cc1ncc(Cc2coc(CCOC(=O)c3ccc(Cl)cc3)c2)c(N)n1	3300 nM	–	–	–	–	–	–
Cc1ncc(Cc2csc(CCO)c2C)c(N)n1 [3-DEAZATHIAMINE]	3600 nM	2.78	18 nM	–	–	–	–
Cc1ncc(Cc2coc(CCNC(=O)c3cccnc3)c2)c(N)n1	2500 nM	–	–	–	–	–	–
